Laboratory results published in publication PMC5559315 (Biochimie, 2017).
“Also recorded” adds a separate entry of the source. Like-named read-outs stand apart in the source and are kept apart here.

Experiments:
[1] = target: full length sGC from Manduca sexta (Ms sGC); settings: read-out: KD(CO), ref [27]; cited from earlier work
Ns H-NOX = settings: cited from earlier work; for Kd / koff / kon: ref [10],[18]
Cb H-NOX = settings: ref [11], cited from earlier work
[2] = target: β H-NOX/PAS subunit of Ms sGC; settings: read-out: KD(CO); β H-NOX/PAS subunit alone; ref [27]; cited from earlier work
ferrous So H-NOX = test: Stopped-flow binding kinetics of gaseous ligands to ferrous So H-NOX; parameters: species or system Shewanella oneidensis; settings: for kon: ferrous So H-NOX, room temperature, anaerobic, CO: 6c CO-heme-His complex
Vc H-NOX [3] = settings: ref [9], cited from earlier work
[4] = target: soluble guanylyl cyclase (sGC); settings: cited from earlier work; for Kd / koff / kon: ref [18]
Ms sGC NT2 = settings: read-out: KD(CO); Ms sGC NT2, lacking 48 residues from α-subunit N-terminus and the catalytic domains; ref [27]; cited from earlier work
Tt H-NOX = settings: ref [11], cited from earlier work; for Kd / koff / kon: NO: 6c NO-heme-His complex
Vc H-NOX [5] = test: Gaseous ligand binding kinetics of Vc H-NOX; parameters: species or system Vibrio cholera; settings: reacted with 600 µM O2; data not shown
[6] = NO: 6c NO-heme-His complex, O2: high pressure cell
[7] = calculated as koff/kon, NO: 6c NO-heme-His complex
[8] = O2, estimated based on the sliding scale rule
[9] = Intermediate NO-heme--NO(−-His), estimated based on computer simulations

Q: With `[C-]#[O+]` [CO, carbon monoxide] as the compound, how does the Kd [1] read?
A: The Kd was 50 to 100 µM.

Q: And the Kd (Ns H-NOX; [6])?
A: Its Kd is 1.4 µM.

Q: What about the koff (Ns H-NOX; NO: 6c NO-heme-His complex) of the same compound?
A: Its koff is 3.6 s⁻¹.

Q: What about the kon (Ns H-NOX; NO: 6c NO-heme-His complex) of the same compound?
A: Its kon is 3e+06 M⁻¹ s⁻¹.

Q: What about the Kd (Cb H-NOX; NO: 6c NO-heme-His complex) of the same compound?
A: The Kd was 670 nM.

Q: What about the koff (Cb H-NOX; NO: 6c NO-heme-His complex) of the same compound?
A: The koff was 1.0 s⁻¹.

Q: What about the kon (Cb H-NOX; NO: 6c NO-heme-His complex) of the same compound?
A: Its kon is 1.5e+06 M⁻¹ s⁻¹.

Q: And the Kd [2]?
A: The Kd was 0.2 µM.

Q: And the Kd (ferrous So H-NOX; [7])?
A: The Kd was 0.85 µM.

Q: What about the kon (ferrous So H-NOX; NO: 6c NO-heme-His complex) of the same compound?
A: Its kon is 820000 M⁻¹ s⁻¹.

Q: What about the Kd (Vc H-NOX [3]; NO: 6c NO-heme-His complex) of the same compound?
A: Its Kd is 0.77 µM.

Q: And the koff (Vc H-NOX [3]; NO: 6c NO-heme-His complex)?
A: Its koff is 0.85 s⁻¹.

Q: What about the kon (Vc H-NOX [3]; NO: 6c NO-heme-His complex) of the same compound?
A: The kon was 1.1e+06 M⁻¹ s⁻¹.

Q: What about the Kd ([4]; NO: 6c NO-heme-His complex) of the same compound?
A: The Kd was 260 µM.

Q: And the koff ([4]; NO: 6c NO-heme-His complex)?
A: The koff was 10.7 s⁻¹.

Q: What about the kon ([4]; NO: 6c NO-heme-His complex) of the same compound?
A: Its kon is 40000 M⁻¹ s⁻¹.

Q: What about the Kd (Ms sGC NT2) of the same compound?
A: Its Kd is 50 to 100 µM.

Q: What about the Kd (Tt H-NOX) of the same compound?
A: The Kd was 160 nM.

Q: What about the koff (Tt H-NOX) of the same compound?
A: Its koff is 0.5 s⁻¹.

Q: What about the kon (Tt H-NOX) of the same compound?
A: Its kon is 3.3e+06 M⁻¹ s⁻¹.

Q: With `O=O` [O2] as the compound, how does the Kd (Ns H-NOX; [6]) read?
A: The Kd was 13000 µM.

Q: What about the autoxidation rate (Ns H-NOX; ref [10]) of the same compound?
A: The autoxidation rate was 1.4e-05 s⁻¹.

Q: And the autoxidation rate (Vc H-NOX [5])?
A: Its autoxidation rate is ~ 4 × 10^−3 s^−1.

Q: What about the Kd (Cb H-NOX; NO: 6c NO-heme-His complex) of the same compound?
A: The Kd was 53000 nM.

Q: And the autoxidation rate (Cb H-NOX; reacted with 600 µM O2)?
A: Its autoxidation rate is 0.02 s⁻¹.

Q: And the O2 binding (ferrous So H-NOX; O2-saturated buffer, final [O2] = 600 µM, no oxyferrous intermediate)?
A: Its O2 binding is “does not bind O2”.

Q: What about the Kd (ferrous So H-NOX; [8]) of the same compound?
A: Its Kd is roughly 4500 µM.

Q: And the Kd (Vc H-NOX [3]; [8])?
A: The Kd was roughly 1300 µM.

Q: What about the Kd (Tt H-NOX) of the same compound?
A: Its Kd is 44 nM.

Q: What about the koff (Tt H-NOX) of the same compound?
A: Its koff is 1.9 s⁻¹.

Q: What about the kon (Tt H-NOX) of the same compound?
A: Its kon is 4.3e+07 M⁻¹ s⁻¹.

Q: And the “autoxidation of oxyferrous heme” value (Tt H-NOX)?
A: Its value is “no autoxidation is observed”.

Q: What does the source list for nitric oxide [NO]?
A: Kd (Ns H-NOX; 2nd 6c NO-heme-His complex): 0.8 µM; koff (Ns H-NOX; 2nd 6c NO-heme-His complex): 1.9 s⁻¹; kon (Ns H-NOX; 2nd 6c NO-heme-His complex): 2.4e+06 M⁻¹ s⁻¹; Kd (Ns H-NOX; [6]): 0.00017 µM; koff (Ns H-NOX; NO: 6c NO-heme-His complex): 0.05 s⁻¹; kon (Ns H-NOX; NO: 6c NO-heme-His complex): 3e+08 M⁻¹ s⁻¹; koff (Cb H-NOX; 5c heme-NO complex): 0.0011 s⁻¹; kon (Cb H-NOX; [9]): 1.8 × 10^7 ^‡ M^−1s^−1; Kd (Cb H-NOX; NO: 6c NO-heme-His complex): 0.08 nM; koff (Cb H-NOX; NO: 6c NO-heme-His complex): 0.012 s⁻¹; kon (Cb H-NOX; NO: 6c NO-heme-His complex): 1.5e+08 M⁻¹ s⁻¹; Kd (Cb H-NOX; read-out: KD(NO)(apparent), 5c heme-NO complex): 0.0073 nM; koff,5c(NO) (ferrous So H-NOX; 5c heme-NO complex, CO displacement method): 0.0013 s⁻¹; koff, dissociation rate of NO from the quaternary intermediate (ferrous So H-NOX; Intermediate NO-heme--NO(−-His), y-intercept of secondary plot): very small; also recorded: small; Kd (ferrous So H-NOX; [7]): 0.00015 µM; kon (ferrous So H-NOX; NO: 6c NO-heme-His complex): 1.5e+09 M⁻¹ s⁻¹; formation rate of the 5c heme-NO complex (D → E) (ferrous So H-NOX; not measured directly, significantly faster than kobs at 30 µM NO): > 600 s⁻¹; koff (Vc H-NOX [3]; 5c heme-NO complex): 10^−3 – 10^−2 s^−1; koff (Vc H-NOX [3]; [9]): 4.5 × 10^3 ^‡ s^−1; kon (Vc H-NOX [3]; [9]): 2.5 × 10^7 ^‡ M^−1s^−1; Kd (Vc H-NOX [3]; NO: 6c NO-heme-His complex): 0.00027 µM; koff (Vc H-NOX [3]; NO: 6c NO-heme-His complex): 0.3 s⁻¹; kon (Vc H-NOX [3]; NO: 6c NO-heme-His complex): 1.1e+09 M⁻¹ s⁻¹; koff ([4]; 5c heme-NO complex): 10^−4 – 10^−3 s^−1; koff ([4]; Intermediate NO-heme--NO(−-His)): 26 s⁻¹; Kd ([4]; NO: 6c NO-heme-His complex): 0.054 µM; koff ([4]; NO: 6c NO-heme-His complex): 27 s⁻¹; kon ([4]; NO: 6c NO-heme-His complex): 1.4e+08 M⁻¹ s⁻¹; conversion rate from 6c NO complex to 5c NO-heme complex ([4]; ref [23]): 8.5 s⁻¹; Kd (Tt H-NOX): 0.023 nM; koff (Tt H-NOX): 0.0034 s⁻¹; kon (Tt H-NOX): 1.5e+08 M⁻¹ s⁻¹
